Measurements from PMC11527646, “Pharmacological blockade of the mast cell MRGPRX2 receptor supports investigation of its relevance in skin disorders” (Frontiers in Immunology, 2024).
pEC50: −log10 of the molar value. Entries after “also recorded” stand apart in the source; their conditions may differ. Like-named read-outs stand apart in the source and are kept apart here. Bridge positions count the residues as written; N and C are the ends. Peptide text beside a SMILES is read from it.

Columns and labels:
MRGPRX2 = molecular target: T1, MRGPRX2 (Homo sapiens, UniProt Q96LB1); experiment: LAD2 mast cell degranulation (β-hexosaminidase release), MRGPRX2 ligand-mediated; type: cell-based; set-up: human mast cells expressing endogenous MRGPRX2; endogenous in cells; […]
T1 sequence (Q96LB1 1-330): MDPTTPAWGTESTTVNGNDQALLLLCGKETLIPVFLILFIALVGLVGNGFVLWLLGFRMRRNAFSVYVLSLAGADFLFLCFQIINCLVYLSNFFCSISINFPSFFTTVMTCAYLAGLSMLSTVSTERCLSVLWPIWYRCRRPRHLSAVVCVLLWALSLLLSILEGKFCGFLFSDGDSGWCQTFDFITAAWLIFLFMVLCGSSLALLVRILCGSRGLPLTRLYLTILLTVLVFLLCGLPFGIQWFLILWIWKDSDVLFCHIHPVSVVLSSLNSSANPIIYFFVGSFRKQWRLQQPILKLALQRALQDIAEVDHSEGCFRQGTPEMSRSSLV
Protocol: Two different in vitro human mast cell systems were studied: (a) a human mast cell line, LAD2, established from a patient with mast cell sarcoma; and (b) mast cells freshly isolated from human skin. MRGPRX2 antagonist IC50 values were determined in the LAD2 mast cell degranulation assay using approximately EC80 concentrations for five different MRGPRX2 activating ligands (see Supplementary Figure 1 ).

human basophils = experiment: Histamine release from human blood basophils (buffy coats); type: cell-based; conditions: 0.2–25 μM; non-allergic or allergic donors, with or without anti-IgE pre-incubation
Protocol: Blood bank buffy coats were screened for reactions against 10 inhalant allergens (grass, birch, mugwort, cat, dog, horse, Dermatophagoides pteronyssinus, Dermatophagoides farinae, Cladosporium, and Alternaria) and 10 food allergens (milk, egg, wheat, peanut, hazelnut, kiwi, cod fish, shrimp, celeriac, and soy). Five buffy coats with histamine release > 30 ng/mL to any of the tested allergens and with a histamine release to blood with anti-IgE > 30 ng/mL were included as allergic donors. Further, five buffy coats with histamine release < 10 ng/mL to any of the above-mentioned allergens and with a histamine release to blood with anti-IgE > 25 ng/mL were included as non-allergic donors.
The buffy coats were pre-incubated for 30 min at 37°C with either buffer or anti-human IgE in concentrations ranging from 0.04 µg/mL to 5 µg/mL. […] Following pre-incubation with anti-IgE and incubation with SP, released histamine was quantified as previously described ([14]). Briefly, histamine was bound to a glass fiber matrix at the bottom of microtiter plates and after a series of wash steps coupled to ortho-phtaldialdehyde before being detected fluorometrically in the Histareader™ 501 (RefLab ApS, Copenhagen, Denmark). […]
Anti-IgE pre-stimulation. Histamine release measured in blood samples pre-incubated with various concentrations of anti-lgE for 30 mins, followed by 1 hour incubation with various […]

Question: C[C@@H](O)[C@@H]1NC(=O)[C@H](CCCCN)NC(=O)[C@H](Cc2c[nH]c3ccccc23)NC(=O)[C@H](Cc2ccccc2)NC(=O)[C@H](Cc2ccccc2)NC(=O)[C@H](CC(N)=O)NC(=O)[C@H](CCCCN)NC(=O)[C@@H](NC(=O)[C@@H]2CCCN2)CSSC[C@@H](C(=O)N[C@@H](CCCCN)C(=O)O)NC(=O)[C@H](CO)NC(=O)[C@H](CO)NC(=O)[C@H](Cc2ccccc2)NC1=O [Cortistatin 14, reference compound] (H-PCKNFFWKTFSSCK-OH; disulfide 2-13; N-terminus and C-terminus assumed) was tested. Which pEC50 (MRGPRX2; representative dose response curves, read-out: LAD2 mast cell degranulation agonist EC50) did it give?
Answer: Its pEC50 is 7.17.

Question: CC[C@H](C)[C@H](NC(=O)CNC(=O)[C@H](CC(=O)O)NC(=O)[C@H](CO)NC(=O)[C@@H](N)Cc1cnc[nH]1)C(=O)N[C@@H](Cc1ccccc1)C(=O)N[C@H](C(=O)N[C@@H](CC(=O)O)C(=O)N[C@@H](CO)C(=O)N[C@@H](Cc1ccc(O)cc1)C(=O)N[C@@H](CO)C(=O)N[C@@H](CCCNC(=N)N)C(=O)N[C@@H](Cc1ccc(O)cc1)C(=O)N[C@@H](CCCNC(=N)N)C(=O)N[C@@H](CCCCN)C(=O)N[C@@H](CCC(N)=O)C(=O)N[C@@H](CCSC)C(=O)N[C@@H](C)C(=O)N[C@H](C(=O)N[C@@H](CCCCN)C(=O)N[C@@H](CCCCN)C(=O)N[C@@H](Cc1ccc(O)cc1)C(=O)N[C@@H](CC(C)C)C(=O)N[C@@H](C)C(=O)N[C@@H](C)C(=O)N[C@H](C(=O)N[C@@H](CC(C)C)C(N)=O)C(C)C)C(C)C)[C@@H](C)O [PACAP-27, reference compound] was tested. Which pEC50 (MRGPRX2) did it give?
Answer: The pEC50 was 6.66.

Question: CSCC[C@H](NC(=O)[C@H](CC(C)C)NC(=O)CNC(=O)[C@H](Cc1ccccc1)NC(=O)[C@H](Cc1ccccc1)NC(=O)[C@H](CCC(N)=O)NC(=O)[C@H](CCC(N)=O)NC(=O)[C@@H]1CCCN1C(=O)[C@H](CCCCN)NC(=O)[C@@H]1CCCN1C(=O)[C@@H](N)CCCN=C(N)N)C(N)=O [Substance P] was tested. Which “Histamine release response of basophils” value (human basophils) did it give?
Answer: Its value is “no SP response could be detected”.

Question: With COc1ccc(-n2nnnc2C(F)(F)F)cc1CN[C@H]1CCCN[C@H]1c1ccccc1 [vofopitant, reference compound] as the compound, how does the “Influence on Substance P-mediated mast cell degranulation” value (MRGPRX2; Substance P 1 μM, β-hexosaminidase release, n = 8) read?
Answer: Its value is “has no influence; also recorded: unaltered”.
